Measured values from patent EP2008653A1, “Serotonergic compounds for treating neuronal illnesses” (Charité-Universitätsmedizin Berlin, priority 2007, dated 2008).

Test system: fokalen Ischämie in Mäusen
Assay: Mouse model of focal ischemia (30 min MCAo/reperfusion), overall outcome
Type: in vivo, Mäuse
Settings: Mirtazapin 20 mg/kg i.p. starting 7 days after MCAo/reperfusion
Text: Die erfindungsgemäßen neuroprotektiven und neuroregenerativen/neuroplastischen Effekte von SSRI auf neuronale Krankheiten wurde anhand eines anerkannten Tiermodells zur fokalen Ischämie in Mäusen untersucht. […] Tag nach der Induktion der Ischämie einsetzte.
Anschließend wurden die SRRI Effekte auf das Volumen der ischämischen Läsionen ausgewertet. Ferner wurden die Tiere Standard-Verhaltenstests unterzogen. Zudem wurden die Konzentrationen ausgewählter Neurotransmitter erfaßt.
Die Tierversuche wurden nach den Maßgaben des Tierschutzgesetzes in Übereinstimmung mit institutionellen und internationalen Richtlinien durchgeführt. Männliche 12936/SvEv-Mäuse (18-20 g, Bundesamt für Gesundheitsschutz Berlin) wurden in Gruppen von 4-5 Mäusen pro Käfig in Standardlaborkäfigen bei einer Umgebungstemperatur von 20-21°C bei einem 12 h-Licht-Dunkel-Rhythmus (8.00 Uhr/20.00 Uhr) mit freiem Zugang zu Futter und Wasser gehalten. Die Narkose der Mäuse erfolgte mit 1% Isofluran in 69% N20 und 30% 02 mit einem Narkoseverdampfer. Die Tiere wurden einer 30 min Fliamentokklusion der Arteria cerebri media (MCAo) unterworfen, wobei die Körpertemperatur und der regionale cerebrale Blutfluss wie beschrieben gemessen wurden (Endres et al., 1998). […]

For CN1CCN2c3ncccc3Cc3ccccc3C2C1 (racemic) [Mirtazapin, (RS)-(±)-2-Methyl-1,2,3,4,10,14b-hexahydropyrazino [2,1-a]pyrido[2,3-c][2]benzazepin], the “Ergebnisse (overall outcome in the MCAo model)” value was “entsprachen denjenigen, die mit Citalopram erreicht wurden”.
